In paper PMC10740432, “The GDP-Mannose Dehydrogenase of Pseudomonas aeruginosa: An Old and New Target to Fight against Antibiotics Resistance of Mucoid Strains” (Antibiotics, 2023):

Legend:
[1] = target: T1, GDP-mannose dehydrogenase (GMD) (Pseudomonas aeruginosa, UniProt P11759); assay: inhibition of NADH formation at […] nm; assay type: biochemical; settings: read-out: Percentage of GMD Inhibition at the Final Concentration of
T1 construct: gene algD; native full-length protein purified from mucoid P. aeruginosa; 48 kDa polypeptide; 59 kDa apparent on gel filtration, monomer/active dimer; no tag

[2] = target: T1, GDP-mannose dehydrogenase (GMD); assay: NADH formation at […] nm, Dixon plot; assay type: biochemical
[3] = system: Nc1nc2c(ncn2[C@@H]2O[C@H](COP(=O)(O)OP(=O)(O)O[C@H]3O[C@H](CO)[C@@H](O)[C@H](O)[C@@H]3O)[C@@H](O)[C@H]2O)c(=O)[nH]1; assay: purified protein; settings: strong-affinity site of two (negative cooperativity), strains NK 125502 and A22 alg^+, 1 mM NAD+, 10 mM MgSO4, 0.2 M glycyl-glycine pH 8.5, 37 °C
[4] = system: NC(=O)c1ccc[n+]([C@@H]2O[C@H](COP(=O)(O)OP(=O)(O)OC[C@H]3O[C@@H](n4cnc5c(N)ncnc54)[C@H](O)[C@@H]3O)[C@@H](O)[C@H]2O)c1; assay: purified protein; settings: co-substrate GDP-mannose, 10 mM MgSO4, 0.2 M glycyl-glycine pH 8.5, 37 °C, strain not stated, varied: cofactor

T1 sequence (P11759 whole entry): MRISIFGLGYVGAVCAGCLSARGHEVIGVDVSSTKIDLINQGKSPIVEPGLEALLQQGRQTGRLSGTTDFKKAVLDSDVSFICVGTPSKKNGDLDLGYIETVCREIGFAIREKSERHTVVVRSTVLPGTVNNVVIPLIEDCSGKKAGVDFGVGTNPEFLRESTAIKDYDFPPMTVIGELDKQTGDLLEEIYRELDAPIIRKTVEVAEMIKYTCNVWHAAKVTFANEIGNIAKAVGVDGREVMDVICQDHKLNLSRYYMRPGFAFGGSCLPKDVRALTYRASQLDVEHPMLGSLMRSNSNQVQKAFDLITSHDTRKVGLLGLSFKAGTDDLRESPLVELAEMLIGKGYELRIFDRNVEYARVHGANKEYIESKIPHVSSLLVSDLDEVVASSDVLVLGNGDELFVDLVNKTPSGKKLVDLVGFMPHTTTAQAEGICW

Molecule | inhibition at 500 µM [1] [%] | also measured
NC[C@H]1O[C@@H](n2cnc3c(=O)[nH]c(N)nc32)[C@H](O)[C@@H]1O [5′AG, 5′-amino-5′-deoxy-guanosine] | 64 ± 3 | –
Nc1nc2c(ncn2[C@@H]2O[C@H](CNCCCO)[C@@H](O)[C@H]2O)c(=O)[nH]1 [5′APG, 5′-(3-hydroxypropyl)-amino-5′-guanosine] | 72 ± 2 | –
C#CC(OC(C)=O)[C@H]1O[C@H](OC(=O)NS(=O)(=O)OC[C@H]2O[C@@H](n3cnc4c(=O)[nH]c(NC(C)=O)nc43)[C@@H]3OC(C)(C)O[C@@H]32)[C@@H](OC(C)=O)[C@@H](OC(C)=O)[C@@H]1OC(C)=O (stereo partly drawn) [AM5′ASG, alcynyl-6-tetra-O-acetyl-mannose-carbonyl-amino-sulfonyl-guanosine] | 90 ± 3 | –
Nc1nc2c(ncn2[C@@H]2O[C@H](CO)[C@@H](O)[C@H]2O)c(=O)[nH]1 [guanosine] | – | Ki [2]: ~40 µM
GDP-mannose dehydrogenase (GMD) (Pseudomonas aeruginosa PAO1) | – | Km [3]: 13 µM; Km [4]: 360 µM
